# Test results reported in publication PMC10999543, “Identification of kinase modulators as host-directed therapeutics against intracellular methicillin-resistant Staphylococcus aureus” (Frontiers in Cellular and Infection Microbiology, 2024).
# Read-outs that look alike come from different tables or passages of the source.
# What was measured:
# intracellular MRSA = format: cell-based, Staphylococcus aureus; settings: for %GFP+ rep 1 / z-scoreMRSA+ rep 1: replicate 1; for %GFP+ rep 2 / z-scoreMRSA+ rep 2: replicate 2; for %GFP+ rep 3 / z-scoreMRSA+ rep 3: replicate 3; for z-scoreMRSA+ mean: mean of 3 replicates
# Summary of the method: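 HeLa cells infected with GFP-MRSA (MOI ~6.8), gentamicin-cleared, then incubated overnight at 37°C with inhibitors plus 5 µg/ml gentamicin; DMSO as negative control, triplicates. Flow cytometry gave % GFP-positive cells and cell count (viability surrogate); hits by plate z-score (MRSA ≤ -2, HeLa count ≥ -3).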
# HeLa cells = assay: Compound screen by flow cytometry: HeLa cell count as surrogate readout of cell viability (z-scoreHeLa); format: cell-based, human; settings: for cell count rep 1 / z-scoreHeLa rep 1: replicate 1; for cell count rep 2 / z-scoreHeLa rep 2: replicate 2; for cell count rep 3 / z-scoreHeLa rep 3: replicate 3; for z-scoreHeLa mean: mean of 3 replicates
# Summary of the method: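 HeLa cells were infected with GFP-MRSA (mean MOI 6.8 ± 4.6) for 1 h, and extracellular bacteria were killed with 30 µg/ml gentamicin. Cells were then incubated overnight with kinase inhibitors in 5 µg/ml gentamicin, in triplicate against DMSO controls. Flow-cytometric cell count served as a viability surrogate, expressed as a plate z-score.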
# [1] = PKIS compounds raw data, MRSA-infected HeLa cells
# [2] = Yes/No: effect without cell death
# [3] = compound screen, MRSA-infected HeLa cells
# [4] = PKIS compounds raw data, HeLa cell count
# [5] = compound screen, HeLa cell count
# [6] = PKIS compound screen, Yes/No call
# [7] = PKIS compound screen, Yes/No call (effect without cell death)
# [8] = PKIS compound screen raw data, MRSA-infected HeLa cells
# [9] = PKIS compound screen raw data, HeLa cell count
# [10] = PKIS compound screen, MRSA-infected HeLa cells
# [11] = PKIS compound screen, HeLa cell count
smiles,measurement,setting,value
CN(C)C(=O)O[C@@H]1CN[C@@H](C#Cc2cc3ncnc(Nc4ccc(OCc5cccc(F)c5)c(Cl)c4)c3s2)C1 [GSK238063A],%GFP+ rep 1,intracellular MRSA; [1],8.6%
same,%GFP+ rep 2,intracellular MRSA; [1],9.6%
same,%GFP+ rep 3,intracellular MRSA; [1],9.8%
same,effect,intracellular MRSA; Yes/No call from z-scoreMRSA+,No
same,hit,intracellular MRSA; [2],No
same,z-scoreMRSA+ mean,intracellular MRSA; [3],-1.52
same,z-scoreMRSA+ rep 1,intracellular MRSA; [3],-1.46
same,z-scoreMRSA+ rep 2,intracellular MRSA; [3],-1.30
same,z-scoreMRSA+ rep 3,intracellular MRSA; [3],-1.81
same,cell count rep 1,HeLa cells; [4],3194
same,cell count rep 2,HeLa cells; [4],3723
same,cell count rep 3,HeLa cells; [4],4546
same,cell death,HeLa cells; Yes/No call from z-scoreHeLa,No
same,z-scoreHeLa mean,HeLa cells; [5],-1.00
same,z-scoreHeLa rep 1,HeLa cells; [5],-1.43
same,z-scoreHeLa rep 2,HeLa cells; [5],-0.41
same,z-scoreHeLa rep 3,HeLa cells; [5],-1.16
NS(=O)(=O)c1ccc(N/N=C2\C(=O)Nc3ccc(Cl)cc32)cc1 [GW280670X],effect,intracellular MRSA; [6],No
same,hit,intracellular MRSA; [7],No
same,z-scoreMRSA+ mean,intracellular MRSA; PKIS compound screen,6.79
same,z-scoreMRSA+ rep 1,intracellular MRSA; PKIS compound screen,7.09
same,z-scoreMRSA+ rep 2,intracellular MRSA; PKIS compound screen,11.94
same,z-scoreMRSA+ rep 3,intracellular MRSA; PKIS compound screen,1.34
same,%GFP+ rep 1,intracellular MRSA; [1],35.3%
same,%GFP+ rep 2,intracellular MRSA; [1],49.2%
same,%GFP+ rep 3,intracellular MRSA; [1],20.4%
same,cell death,HeLa cells; [6],No
same,z-scoreHeLa mean,HeLa cells; PKIS compound screen,0.17
same,z-scoreHeLa rep 1,HeLa cells; PKIS compound screen,-0.14
same,z-scoreHeLa rep 2,HeLa cells; PKIS compound screen,0.27
same,z-scoreHeLa rep 3,HeLa cells; PKIS compound screen,0.37
same,cell count rep 1,HeLa cells; [4],4621
same,cell count rep 2,HeLa cells; [4],4629
same,cell count rep 3,HeLa cells; [4],7741
O=C(Nc1n[nH]c2cc(-c3cccc(F)c3F)ccc12)C1CC1 [SB-733894],%GFP+ rep 1,intracellular MRSA; [8],21.8%
same,%GFP+ rep 2,intracellular MRSA; [8],21.7%
same,%GFP+ rep 3,intracellular MRSA; [8],19.3%
same,effect,intracellular MRSA; Yes/No call from z-scoreMRSA+,No
same,hit,intracellular MRSA; [2],No
same,z-scoreMRSA+ mean,intracellular MRSA; [3],-0.63
same,z-scoreMRSA+ rep 1,intracellular MRSA; [3],-0.81
same,z-scoreMRSA+ rep 2,intracellular MRSA; [3],-0.22
same,z-scoreMRSA+ rep 3,intracellular MRSA; [3],-0.87
same,cell count rep 1,HeLa cells; [9],4632
same,cell count rep 2,HeLa cells; [9],4442
same,cell count rep 3,HeLa cells; [9],4898
same,cell death,HeLa cells; Yes/No call from z-scoreHeLa,No
same,z-scoreHeLa mean,HeLa cells; [5],0.0318
same,z-scoreHeLa rep 1,HeLa cells; [5],0.20
same,z-scoreHeLa rep 2,HeLa cells; [5],0.11
same,z-scoreHeLa rep 3,HeLa cells; [5],-0.22
CCNC(=O)O[C@H]1CN[C@H](C#Cc2cc3ncnc(Nc4ccc(OCc5cccc(F)c5)c(Cl)c4)c3s2)C1 [GSK192082A],%GFP+ rep 1,intracellular MRSA; [1],6.9%
same,%GFP+ rep 2,intracellular MRSA; [1],7.5%
same,%GFP+ rep 3,intracellular MRSA; [1],8.8%
same,effect,intracellular MRSA; Yes/No call from z-scoreMRSA+,Yes
same,hit,intracellular MRSA; [2],Yes
same,z-scoreMRSA+ mean,intracellular MRSA; [3],-2.04
same,z-scoreMRSA+ rep 1,intracellular MRSA; [3],-2.01
same,z-scoreMRSA+ rep 2,intracellular MRSA; [3],-2.02
same,z-scoreMRSA+ rep 3,intracellular MRSA; [3],-2.09
same,cell count rep 1,HeLa cells; [4],3041
same,cell count rep 2,HeLa cells; [4],2947
same,cell count rep 3,HeLa cells; [4],5819
same,cell death,HeLa cells; Yes/No call from z-scoreHeLa,No
same,z-scoreHeLa mean,HeLa cells; [5],-1.04
same,z-scoreHeLa rep 1,HeLa cells; [5],-1.57
same,z-scoreHeLa rep 2,HeLa cells; [5],-1.00
same,z-scoreHeLa rep 3,HeLa cells; [5],-0.55
COC(=O)c1cccc(NC(=O)NC2CCN(c3ccnc(Nc4ccc(OC)cc4)n3)C2)c1 (centres unmarked) [GSK1379746A],%GFP+ rep 1,intracellular MRSA; [8],19.0%
same,%GFP+ rep 2,intracellular MRSA; [8],17.4%
same,%GFP+ rep 3,intracellular MRSA; [8],21.2%
same,z-scoreMRSA+ mean,intracellular MRSA; [10],-0.17
same,z-scoreMRSA+ rep 1,intracellular MRSA; [10],0.06
same,z-scoreMRSA+ rep 2,intracellular MRSA; [10],-0.55
same,z-scoreMRSA+ rep 3,intracellular MRSA; [10],-0.01
same,effect,intracellular MRSA; [6],No
same,hit,intracellular MRSA; [7],No
same,effect,"intracellular MRSA; PKIS compound screen, Yes/No call on z-scoreMRSA+",No
same,z-scoreMRSA+ mean,intracellular MRSA; PKIS compound screen,-0.13
same,z-scoreMRSA+ rep 1,intracellular MRSA; PKIS compound screen,-0.05
same,z-scoreMRSA+ rep 2,intracellular MRSA; PKIS compound screen,-0.0265
same,z-scoreMRSA+ rep 3,intracellular MRSA; PKIS compound screen,-0.31
same,%GFP+ rep 1,intracellular MRSA; [1],26.8%
same,%GFP+ rep 2,intracellular MRSA; [1],25.9%
same,%GFP+ rep 3,intracellular MRSA; [1],25.6%
same,cell count rep 1,HeLa cells; [9],24857
same,cell count rep 2,HeLa cells; [9],18367
same,cell count rep 3,HeLa cells; [9],14326
same,z-scoreHeLa mean,HeLa cells; [11],-0.99
same,z-scoreHeLa rep 1,HeLa cells; [11],-0.90
same,z-scoreHeLa rep 2,HeLa cells; [11],-1.18
same,z-scoreHeLa rep 3,HeLa cells; [11],-0.90
same,cell death,HeLa cells; [6],No
same,cell death,"HeLa cells; PKIS compound screen, Yes/No call on z-scoreHeLa",No
same,z-scoreHeLa mean,HeLa cells; PKIS compound screen,-0.86
same,z-scoreHeLa rep 1,HeLa cells; PKIS compound screen,-1.12
same,z-scoreHeLa rep 2,HeLa cells; PKIS compound screen,-1.01
same,z-scoreHeLa rep 3,HeLa cells; PKIS compound screen,-0.44
same,cell count rep 1,HeLa cells; [4],4181
same,cell count rep 2,HeLa cells; [4],4486
same,cell count rep 3,HeLa cells; [4],4898
